In patent EP0330052B1, “Use of benzimidazoles for preparing a medicine with an anti-ischemial activity on the heart, and combinations with betablockers or bradycardics” (Dr. Karl Thomae GmbH, priority 1988, dated 1989):

Assays:
Kaninchen = test: Influence on infarct size in an ischaemia/reperfusion model (60 min coronary ligation, 30 min reperfusion); format: in vivo; settings: i.v. 10 min before occlusion
Description: 1. Beeinflussung der Infarktgröße an einem Ischämie/Reperfusionsmodell
Kaninchen (Russen beiderlei Geschlechts, Körpergewicht 2-2,5 kg) werden mit einem Bolus (40-60 mg/kg i.p.) und nachfolgender Dauerinfusion (10 |g/kg/h) Pentobarbital narkotisiert. Die Körpertemperatur wird bei 38°C gehalten. Nach endotrachealer Intubation werden die Tiere druckkonstant mit einer Mischung aus 50 % O₂ und 50 % N₂ beatmet. Die Kontrolle der Blutgase und des Blut pH erfolgt mit einem Blutgasanalyzer (ABL-2, Radiometer). Zur Messung des linksventrikulären Druckes wurde ein Druckwandler über die A-carotis in die linke Herzkammer geschoben. Der Aortendruck wird über einen via A. femoralis eingeführten Katheter erfaßt. Nach Eröffnung des Thorax im 5. linken Interkostalraum wird die linke absteigende Koronararterie für 60 Minuten ligiert und danach die Koronararterie wieder eröffnet. Nach 30minütiger Reperfusion wird die Arterie an derselben Stelle wieder verschlossen und das normal perfundierte Myokard mit Patentblau (in den linken Vorhof injiziert) angefärbt. Das Herz wird danach in drei Scheiben geschnitten und das bisher ungefärbte, vorher ischämische Gewebe, wird in einem Puffer mit Triphenyltetrazolium angefärbt. Überlebende Herzmuskelreale färben sich ziegelrot, während totes Gewebe bleich erscheint. […]

Hunde = test: Effect on collateral-dependent residual myocardial perfusion after repeated complete occlusion of the circumflex branch of the left coronary artery (radioactive microspheres); format: in vivo; settings: relative to third occlusion
Description: 2. Wirkung auf die kollateralabhängige Restperfusion des Myokards nach wiederholter vollständiger Okklusion des umschlingenden Astes der linken Koronararterie
Hunde (mischrassig, beiderlei Geschlechts, 20-30 kg Körpergewicht) werden mit Morphin (1 mg/kg s.c.) prämediziert und mit Pentobarbital (i.v. 20 mg/kg Bolus gefolgt von einer Dauerinfusion von 8 mg/kg) narkotisiert. Die Körpertemperatur wird mit einem Heizkissen bei 38°C gehalten. Nach endotrachealer Intubation werden die Tiere mit einem Gemisch von 25 % O₂ und 75 % N₂O beatmet. Der linksventrikuläre Druck wird mit einem Mikrodruckwandler gemessen, während der Aortendruck über einen via A. femoralis vorgeschobenen Katheter erfaßt wird. Nach Thoraxeröffnung im linken 5. Interkostalraum wird der Ramus circumflexus der linken Koronararterie freipärpariert und der Meßkopf eines elektromagnetischen Flowmeters darumgelegt. Zur Injektion von radioaktiven Mikrosphären (regionale Perfusionsmessung) wird der linke Vorhof kanüliert. Die Referenzprobe wird über die linke A. femoralis 2 Minuten lang bei einem Fluß von 6 ml/Minute gezogen. Die Registrierung der hämodynamischen Daten erfolgt auf einem IFD Polygraphen.
Nach einer 30minütigen Äquilibrierungsphase wird der Ramus circumflexus 6 mal im Abstand von jeweils 30 Minuten für 4 Minuten verschlossen. Dabei wird während der 4. Minute eine regionale Perfusionsbestimmung durchgeführt. Die Perfusion des Versorgungsbereiches des Ramus circumflexus ist abhängig von koronaren Kollateralgefäßen. Für die Beurteilung der Kollateralperfusion werden die besonders ischämiegefährdeten subendocardialen Herzmuskelschichten herangezogen. Als Bezugswert vor Substanzgabe dient der jeweilige Flußwert der dritten Okklusion.

[1] = Acute toxicity (LD50), mouse; settings: in vivo, Maus
[2] = Acute toxicity (LD50), rat; settings: in vivo, iv, Ratte, read-out: LD₅₀ i.v.
[3] = po, read-out: LD₅₀ p.o. (converted)

Row | Compound | % Änderung des Kollateralflusses pro Herzschlag im subendocardialen ischämischen Myocard (Hunde; Dosis i.v. 30 µg/kg) | LD50 ([1]; iv, read-out: LD₅₀ i.v.) [mg/kg] | LD50 [1, 3] [mg/kg] | LD50 [2] [mg/kg] | other results
1 | CC(C)NCC(O)COc1ccc(CC(N)=O)cc1 (stereo not shown) [Atenolol, reference compound] |  |  |  |  | % des ischämischen Myokards infarziert (Kaninchen; Dosis 0,3 mg/kg): 63%
2 | Cc1nc2ccc(C3=NNC(=O)CC3C)cc2[nH]1 (stereo not shown) [C, 2-Methyl-5-(5-methyl-3-oxo-4,5-dihydro-2H-6-pyridazinyl)-benzimidazol] | +178% |  |  |  | % Änderung des Kollateralflusses pro Herzschlag im subendocardialen ischämischen Myocard (Hunde; Dosis i.v. 10 µg/kg): +101%
3 | COc1ccc(CCN2CCCC(CN3CCc4cc(OC)c(OC)cc4CC3=O)C2)cc1OC (stereo not shown) [D, 3-[(N-(2-(3,4-Dimethoxyphenyl)-ethyl)-piperidin-3-yl)-methyl]-7,8-dimethoxy-1,3,4,5-tetrahydro-2H-3-benzazepin-2-on] |  | 50 | 720 |  | 
4 | COc1ccc(-c2nc3ccc(C4=NNC(=O)CC4C)cc3[nH]2)cc1 (stereo not shown) [Verbindung A, 2-(4-Methoxyphenyl)-5-(5-methyl-3-oxo-4,5-dihydro-2H-6-pyridazinyl)-benzimidazol] | +100% |  | 600 | 72 | % des ischämischen Myokards infarziert (Kaninchen; Dosis 0,5 mg/kg): 34%
5 | CC1CC(=O)NN=C1c1ccc2nc(-c3ccc(O)cc3)[nH]c2c1 (stereo not shown) [Verbindung B, 2-(4-Hydroxyphenyl)-5-(5-methyl-3-oxo-4,5-dihydro-2H-6-pyridazinyl)-benzimidazol] |  |  |  | > 100 | % Änderung des Kollateralflusses pro Herzschlag im subendocardialen ischämischen Myocard (Hunde; Dosis i.v. 95 µg/kg): +182%
6 | COc1ccc(CCN(C)CCCN2CCc3cc(OC)c(OC)cc3CC2=O)cc1OC [Verbindung E, 1-(7,8-Dimethoxy-1,3,4,5-tetrahydro-2H-3-benzazepin-2-on-3-yl)-3-[N-methyl-N-(2-(3,4-dimethoxyphenyl)-ethyl)-amino]propan] |  | 89 | 1350 |  | 
